Experimental findings from patent publication US20250084067A1, “PYRAZOLE-SUBSTITUTED CYCLOPENTANOL ESTER DERIVATIVE AND USE THEREOF” (CHIA TAI TIANQING PHARMACEUTICAL GROUP CO., LTD., priority 2022, published 2025) are described below.

In one test the target is CDK2/CycA2 kinase (Homo sapiens (Human), UniProt P24941). In words: Determination of inhibitory activity against CDK2/CycA2 kinase. The format is biochemical. How it is done: The wells were set in duplicate, and a control well was set. […] The resulting mixture was left to react at room temperature for 2 h, and then 5 µL of EDTA was added to terminate the reaction, followed by addition of 5 μL of a detection antibody (manufacturer: PerkinElmer, concentration: 8 nM). The mixture was incubated at room temperature for 1 h.

For the next test, the target named is CDK2 CycE1 kinase (Homo sapiens (Human), UniProt P24941). In words: Determination of inhibitory activity against CDK2 CycE1 kinase. The format is biochemical. Here is the method:
CDK2 CycE1 kinase solution (concentration: 0.015 ng/μL) was added to assay wells at 6 μL/well, and different compounds dissolved in DMSO were added to the assay wells separately using a nanoliter pipettor, such that the final concentrations of the compounds were 300 nM to 0.07 nM. The wells were set in duplicate, and a control well was set. After incubation of the above system for 30 min, ATP (concentration: 50 μM or 5000 μM) was mixed with ULight-Myelin Basic Protein Peptide substrate (manufacturer: PerkinElmer, concentration: […]) at a ratio of 1:1, and the mixture was added to the assay wells at 4 μL/well. The resulting mixture was left to react at room temperature for 2 h, and then 5 μL of EDTA was added to terminate the reaction, followed by addition of 5 μL of a detection antibody (manufacturer: PerkinElmer, concentration: 8 nM). The mixture was incubated at room temperature for 1 h.

[1] abbreviates: read-out: CDK2/CycA2 10 μM ATP (kinase) IC50.
[2] abbreviates: read-out: CDK2/CycE1 10 μM ATP (kinase) IC50.

Read-outs that look alike come from different tables or passages of the source. Some results are limits rather than exact numbers.

For `CC(C)NC(=O)O[C@@H]1CC[C@H](c2cc(Nc3ccc(N4CCCC4=O)c(Cl)n3)[nH]n2)C1` [Example 57], the IC50 on CDK2/CycA2 kinase (setting [1]) and on CDK2 CycE1 kinase (setting [2]) was below 10 nM throughout.

For the compound `CC(C)NC(=O)O[C@@H]1CC[C@H](c2cc(Nc3ccc(NS(C)(=O)=O)nc3)n[nH]2)C1` [Example 15], the IC50 against CDK2/CycA2 kinase (10 μM ATP) and against CDK2 CycE1 kinase (10 μM ATP) was below 10 nM throughout.

Turning to `CC(C)NC(=O)O[C@@H]1CC[C@H](c2cc(Nc3ccc(S(N)(=O)=O)cc3)n[nH]2)C1` [Example 65], the IC50 against CDK2/CycA2 kinase (10 μM ATP) and on CDK2 CycE1 kinase (10 μM ATP) was below 10 nM in each case.

In the case of `CC(C)NC(=O)O[C@@H]1CC[C@H](c2cc(Nc3ccc(NS(C)(=O)=O)c(F)n3)n[nH]2)C1` [Example 24], the IC50 against CDK2/CycA2 kinase (10 μM ATP) and against CDK2 CycE1 kinase (10 μM ATP) was below 10 nM throughout.

Regarding `C[C@H](NC(=O)O[C@@H]1CC[C@H](c2cc(Nc3ccc4c(c3)CS(=O)(=O)C4)n[nH]2)C1)C(F)(F)F` [Example 63], the IC50 on CDK2/CycA2 kinase (setting [1]) and at CDK2 CycE1 kinase (setting [2]) was below 10 nM throughout.

As for `CC(C)NC(=O)O[C@@H]1CC[C@H](c2cc(Nc3ccc4c(c3)S(=O)(=O)CC4)n[nH]2)C1` [Example 75], the IC50 against CDK2/CycA2 kinase (10 μM ATP) is 10 to 50 nM; against CDK2 CycE1 kinase (10 μM ATP), below 10 nM.

Turning to `CC(C)NC(=O)O[C@@H]1CC[C@H](c2cc(Nc3ccc(S(C)(=N)=O)cc3)n[nH]2)C1` (stereo partly shown) [Example 61], the IC50 on CDK2/CycA2 kinase (10 μM ATP) and against CDK2 CycE1 kinase (10 μM ATP) was below 10 nM in each case.

Turning to `CC(C)NC(=O)OC1CCC(c2cc(Nc3ncc(NS(C)(=O)=O)cn3)n[nH]2)C1` (stereo not shown) [Example 19], the IC50 on CDK2/CycA2 kinase (10 μM ATP) was 10 to 50 nM; against CDK2 CycE1 kinase (10 μM ATP), below 10 nM.

With `CC(C)NC(=O)O[C@@H]1CC[C@H](c2cc(Nc3ccc(CN(C)C)cc3F)n[nH]2)C1` [Example 10], the IC50 against CDK2/CycA2 kinase (10 μM ATP) was 10 to 50 nM; on CDK2 CycE1 kinase (10 μM ATP), below 10 nM.

`CC(C)NC(=O)O[C@@H]1CC[C@H](c2cc(NC3CCN(S(=O)(=O)c4cnn(C)c4)CC3)n[nH]2)C1` [Example 60]: the IC50 at CDK2/CycA2 kinase (10 μM ATP) and on CDK2 CycE1 kinase (10 μM ATP) was 10 to 50 nM in each case.

In the case of `CC(C)NC(=O)O[C@@H]1CC[C@H](c2cc(Nc3ccc(NS(C)(=O)=O)c(C(F)(F)F)n3)n[nH]2)C1` [Example 11], the IC50 against CDK2/CycA2 kinase (10 μM ATP) and against CDK2 CycE1 kinase (10 μM ATP) was below 10 nM each time.

Turning to `CC(C)NC(=O)O[C@@H]1CC[C@H](c2cc(Nc3ccc(S(=O)(=O)N(C)C)cn3)n[nH]2)C1` [Example 69], the IC50 on CDK2/CycA2 kinase (10 μM ATP) and against CDK2 CycE1 kinase (10 μM ATP) was 10 to 50 nM each time.

As for `CC(C)NC(=O)O[C@@H]1CC[C@H](c2cc(Nc3ccc(S(N)(=O)=O)c(C(F)(F)F)c3)n[nH]2)C1` [Example 66], the IC50 against CDK2/CycA2 kinase (10 μM ATP) and on CDK2 CycE1 kinase (10 μM ATP) was below 10 nM each time.

Take `CC(C)NC(=O)O[C@@H]1CC[C@H](c2cc(Nc3ccc(N4CCCS4(=O)=O)cn3)n[nH]2)C1` [Example 28]: the IC50 against CDK2/CycA2 kinase (10 μM ATP) and against CDK2 CycE1 kinase (10 μM ATP) was below 10 nM throughout.

`CC(C)NC(=O)O[C@@H]1CC[C@H](c2cc(Nc3ccc(NS(C)(=O)=O)c(C(F)F)c3)n[nH]2)C1` [Example 74]: the IC50 on CDK2/CycA2 kinase (setting [1]) and at CDK2 CycE1 kinase (setting [2]) was below 10 nM in each case.

For the compound `CC(C)NC(=O)O[C@@H]1CC[C@H](c2cc(Nc3cc(F)c(NS(C)(=O)=O)cc3F)n[nH]2)C1` [Example 32], the IC50 on CDK2/CycA2 kinase (10 μM ATP) and on CDK2 CycE1 kinase (10 μM ATP) was below 10 nM throughout.

As for `CC(C)NC(=O)O[C@@H]1CC[C@H](c2cc(Nc3ccc(NS(C)(=O)=O)c(C(F)(F)F)c3)n[nH]2)C1` [Example 27], the IC50 against CDK2/CycA2 kinase (10 μM ATP) and at CDK2 CycE1 kinase (10 μM ATP) was below 10 nM each time.

As for `CC(C)NC(=O)O[C@@H]1CC[C@H](c2cc(Nc3ccc(S(N)(=O)=O)cc3F)n[nH]2)C1` [Example 25], the IC50 against CDK2/CycA2 kinase (10 μM ATP) and on CDK2 CycE1 kinase (10 μM ATP) was below 10 nM in each case.

Take `CC(C)NC(=O)O[C@@H]1CC[C@H](c2cc(Nc3ccc(S(N)(=O)=O)c(Cl)n3)n[nH]2)C1` [Example 52]: the IC50 at CDK2/CycA2 kinase (10 μM ATP) and against CDK2 CycE1 kinase (10 μM ATP) was below 10 nM throughout.

For the compound `[2H]C([2H])([2H])C([2H])(NC(=O)O[C@@H]1CC[C@H](c2cc(Nc3ccc(S(N)(=O)=O)c(Cl)n3)n[nH]2)C1)C([2H])([2H])[2H]` [Example 77], the IC50 on CDK2/CycA2 kinase (10 μM ATP) and at CDK2 CycE1 kinase (10 μM ATP) was below 10 nM in each case.

With `CC(C)NC(=O)O[C@@H]1CC[C@H](c2cc(Nc3ccc(NS(C)(=O)=O)c(OC(F)F)c3)n[nH]2)C1` [Example 71], the IC50 on CDK2/CycA2 kinase (setting [1]) and on CDK2 CycE1 kinase (setting [2]) was below 10 nM throughout.

For `CC(C)NC(=O)O[C@@H]1CC[C@H](c2cc(Nc3ccc(NS(C)(=O)=O)c(Cl)n3)n[nH]2)C1` [Example 30], the IC50 against CDK2/CycA2 kinase (10 μM ATP) and against CDK2 CycE1 kinase (10 μM ATP) was below 10 nM in each case.

On to `CC(C)NC(=O)O[C@@H]1CC[C@H](c2cc(Nc3ccc(N=S(C)(C)=O)cc3)n[nH]2)C1` [Example 59], for which the IC50 at CDK2/CycA2 kinase (10 μM ATP) and on CDK2 CycE1 kinase (10 μM ATP) was 10 to 50 nM throughout.

Regarding `CC(C)NC(=O)O[C@@H]1CC[C@H](c2cc(Nc3cc(OC(F)(F)F)c(NS(C)(=O)=O)cn3)n[nH]2)C1` [Example 31], the IC50 on CDK2/CycA2 kinase (setting [1]) and on CDK2 CycE1 kinase (setting [2]) was below 10 nM throughout.

Take `CC(C)NC(=O)O[C@@H]1CC[C@H](c2cc(Nc3ccc4c(c3)CS(=O)(=O)N4)n[nH]2)C1` [Example 43]: the IC50 at CDK2/CycA2 kinase (setting [1]) and on CDK2 CycE1 kinase (setting [2]) was below 10 nM throughout.

On to `CC(C)NC(=O)OC1CCC(c2cc(NC3CCN(S(C)(=O)=O)CC3)n[nH]2)C1` (stereo not shown) [Example 22], for which the IC50 at CDK2/CycA2 kinase (10 μM ATP) and against CDK2 CycE1 kinase (10 μM ATP) was 10 to 50 nM each time.

Consider `CC(=O)Nc1ccc(Nc2cc([C@H]3CC[C@@H](OC(=O)NC(C)C)C3)[nH]n2)nc1` [Example 6], for which the IC50 against CDK2/CycA2 kinase (10 μM ATP) and against CDK2 CycE1 kinase (10 μM ATP) was below 10 nM each time.

`CC(C)NC(=O)O[C@@H]1CC[C@H](c2cc(Nc3ccc(NS(C)(=O)=O)c(OC(F)(F)F)c3)n[nH]2)C1` [Example 47]: the IC50 at CDK2/CycA2 kinase (10 μM ATP) and on CDK2 CycE1 kinase (10 μM ATP) was below 10 nM each time.

`COCCN(C=O)c1ccc(Nc2cc(C3CCC(OC(=O)NC(C)C)C3)[nH]n2)nc1` (stereo not shown) [Example 12]: the IC50 against CDK2/CycA2 kinase (10 μM ATP) and against CDK2 CycE1 kinase (10 μM ATP) was 10 to 50 nM in each case.

`CC(C)NC(=O)O[C@@H]1CC[C@H](c2cc(Nc3ccc(P(C)(C)=O)cc3)n[nH]2)C1` [Example 41]: the IC50 at CDK2/CycA2 kinase (10 μM ATP) and against CDK2 CycE1 kinase (10 μM ATP) was 10 to 50 nM each time.

As to `CNS(=O)(=O)c1ccc(Nc2cc(C3CCC(OC(=O)NC(C)C)C3)[nH]n2)c(F)c1` (stereo not shown) [Example 16], the IC50 on CDK2/CycA2 kinase (10 μM ATP) and against CDK2 CycE1 kinase (10 μM ATP) was below 10 nM throughout.

As for `CC(C)NC(=O)O[C@@H]1CC[C@H](c2cc(Nc3ccc(N(C)S(C)(=O)=O)cn3)n[nH]2)C1` [Example 2], the IC50 against CDK2/CycA2 kinase (10 μM ATP) and at CDK2 CycE1 kinase (10 μM ATP) was 10 to 50 nM each time.

For the compound `CC(C)NC(=O)O[C@@H]1CC[C@H](c2cc(Nc3ccc(S(C)(=N)=O)c(F)c3)n[nH]2)C1` (stereo partly shown) [Example 70], the IC50 at CDK2/CycA2 kinase (setting [1]) and on CDK2 CycE1 kinase (setting [2]) was below 10 nM throughout.

Turning to `CC(C)NC(=O)O[C@@H]1CC[C@H](c2cc(Nc3ccc(S(C)(=N)=O)c(Cl)c3)n[nH]2)C1` (stereo partly shown) [Example 73], the IC50 at CDK2/CycA2 kinase (setting [1]) and on CDK2 CycE1 kinase (setting [2]) was below 10 nM each time.

Take `CC(C)NC(=O)O[C@@H]1CC[C@H](c2cc(Nc3ccc(-c4cnco4)cn3)n[nH]2)C1` [Example 36]: the figures for the IC50 on CDK2/CycA2 kinase (10 μM ATP) and at CDK2 CycE1 kinase (10 μM ATP) were 10 to 50 nM and below 10 nM, respectively.

For the compound `CC(C)NC(=O)OC1CCC(c2cc(Nc3ccc4c(n3)OCC4)n[nH]2)C1` (stereo not shown) [Example 21], the IC50 against CDK2/CycA2 kinase (10 μM ATP) and on CDK2 CycE1 kinase (10 μM ATP) was below 10 nM each time.

`CC(C)NC(=O)O[C@@H]1CC[C@H](c2cc(Nc3ccc(C#N)cc3)n[nH]2)C1` [Example 72]: the IC50 against CDK2/CycA2 kinase (10 μM ATP) and on CDK2 CycE1 kinase (10 μM ATP) was below 10 nM each time.

Consider `CC(C)NC(=O)O[C@@H]1CC[C@H](c2cc(Nc3ccc(NS(=O)(=O)C4CC4)cn3)n[nH]2)C1` [Example 8], for which the IC50 against CDK2/CycA2 kinase (10 μM ATP) and at CDK2 CycE1 kinase (10 μM ATP) was below 10 nM throughout.
